{
  "source": "paper PMC5531531",
  "about": "“A synthetic cationic antimicrobial peptide inhibits inflammatory response and the NLRP3 inflammasome by neutralizing LPS and ATP” (PLoS ONE, 2017)",
  "key": {"[1]": {"test_system": "NLRP3 inflammasome in J774A.1 macrophages", "experiment": "NLRP3 inflammasome activation (IL-1β ELISA, caspase-1 Western blot)", "type": "cell-based", "experimental": "(§1) The expression levels of IL-1β, IL-6 and TNF-α in the conditional medium, sera and lavage fluids were measured by ELISA as described in detail previously.\n(§2) The protein expression levels of iNOS, COX-2, ERK1/2, JNK1/2, p38, IκB-α, PKC, caspase-1 and the phosphorylation levels of ERK1/2, JNK1/2, p38, PKC-α, PKC-δ, IκB-α were determined by Western blotting as described in detail previously.\nFig 4 Effects of GW-A2 on NLRP3 inflammasome activation. (A and B) J774A.1 macrophages were incubated for 30 min with or without 2 μM of GW-A2, for 5.5 h with or without 0.1 μg/ml of E. coli LPS, and then for 30 min with or without 5 mM of ATP (A) or 10 μM of nigericin (B). The levels of IL-1β in the culture medium and activated caspase-1 (p10) in the cells were measured by ELISA and Western blotting, respectively. (C—F) J774A.1 macrophages were incubated for 5.5 h with 0.1 μg/ml of E. coli LPS, for 30 min with or without 2 μM of GW-A2, and then for 30 min with or without 5 mM of ATP (C and E), 10 μM of nigericin (D) or 100 μg/ml of MSU (F). The levels of IL-1β and TNF-α in the culture medium and activated caspase-1 (p10) in the cells were measured by ELISA and Western blotting, respectively. The data are expressed as the mean ± SD of three independent experiments. The Western blotting results shown are a representative experiment of three independent experiments. *, ** and *** indicate significant differences, representing p < 0.05, p < 0.01 and p < 0.001, respectively compared to stimulation alone."}, "THP-1 macrophages": {"test_system": "THP-1 macrophages", "type": "cell-based, human", "experimental": "RAW 264.7 cells or THP-1 macrophages (5 × 10^3 in 0.1 ml of medium) were seeded in 96-well plates and then incubated with various doses of AMP for 24 h. An AlamarBlue® assay (AbD Serotec, Oxford, UK) was used to determine the cytotoxicity of the test AMP. The procedure was conducted following the protocol described in the manufacturer’s instructions."}, "[2]": {"test_system": "E. coli-LPS-activated RAW 264.7 macrophages", "experiment": "MAPK, PKC-α/δ and IκB-α phosphorylation (Western blot)", "type": "cell-based, mouse", "settings": "2 μM GW-A2 30 min, then E. coli LPS 0.1 μg/ml 0–60 min", "experimental": "as §2\nFig 2 Effects of GW-A2 on LPS-mediated signaling pathways. (A-C) RAW 264.7 macrophages were incubated for 30 min with or without 2 μM of GW-A2, followed by 0–60 min with or without 0.1 μg/ml of E. coli LPS. The phosphorylation levels of (A) ERK1/2, JNK1/2 and p38, (B) PKC-α and PKC-δ, and (C) I-κB-α were assayed by western blotting. (D) RAW-Blue^TM cells were incubated for 30 min with or without GW-A2, followed by 24 h with or without 0.1 μg/ml of E. coli LPS. The activation levels of NF-κB were measured by an NF-κB reporter assay. The data are expressed as the mean ± SD of three independent experiments. The western blotting results shown are a representative experiment of three independent experiments. * and ** indicate significant differences, representing p < 0.05 and p < 0.01, respectively compared to LPS alone."}, "[3]": {"test_system": "LPS-induced NO generation in RAW264.7 cells", "experiment": "NO inhibitory assay (Griess reaction), LPS-activated RAW 264.7", "type": "cell-based, mouse", "experimental": "RAW 264.7 cells (2 × 10^5 in 0.5 ml of medium) were seeded in 24-well plates and then incubated with or without LPS (0.1 μg/ml) in the absence or presence of AMP for 24 h. The effects of AMP on NO production were measured indirectly by analyzing nitrite levels using the Griess reaction as described in detail previously."}, "[4]": {"test_system": "E. coli-LPS-activated RAW 264.7 macrophages", "experiment": "TNF-α and IL-6 secretion ELISA, RAW 264.7", "type": "cell-based, mouse", "settings": "RAW 264.7, E. coli LPS 0.1 μg/ml 24 h, Fig 1E", "experimental": "as §1\nFig 1 Effects of GW-A2 on the expression levels of inflammatory mediators. (A) RAW 264.7 macrophages were incubated for 30 min with or without GW-A2 or scrambled GW-A2, followed by incubation with or without 0.1 μg/ml of E. coli LPS or Salmonella LPS for 24 h. The levels of NO in the culture medium were measured by the Griess reaction. (B) RAW 264.7 macrophages were incubated for 30 min with or without GW-A2, followed by incubation with or without peptidoglycan (20 μg/ml), Pam3CSK4 (0.2 μg/ml) or capsular polysaccharide (3 μg/ml) for 24 h. The levels of NO in the culture medium were measured by the Griess reaction. […] The levels of iNOS and COX-2 were assessed by Western blotting and the histograms represent the expression levels compared to the LPS alone group obtained in three different experiments. […] The mRNA levels of iNOS and COX-2 were assessed by quantitative real-time PCR. […] The cell proliferation was measured by AlamarBlue® assay. The data are expressed as the mean ± SD of three independent experiments. *, ** and *** indicate significant differences, representing p < 0.05, p < 0.01 and p < 0.001, respectively compared to stimulation alone. # indicates significant differences, representing p < 0.05 compared to 2 μM of GW-A2 group."}},
  "note": "No end group written: not given here.",
  "data": [
    {"sequence": "GAKYAKIIYNYLKKIANALW [GW-A2]", "values": [
      {"measurement": "IL-1β secretion and caspase-1 activation induced by LPS+nigericin", "setting": "[1]; 2 μM GW-A2 30 min before LPS 5.5 h, then 10 μM nigericin 30 min, Fig 4B", "value": "significantly inhibited"},
      {"measurement": "IL-1β secretion and caspase-1 activation induced by LPS+ATP", "setting": "[1]; 2 μM GW-A2 30 min before LPS 5.5 h, then 5 mM ATP 30 min, Fig 4A", "value": "significantly inhibited"},
      {"measurement": "Nigericin-induced IL-1β secretion and caspase-1 activation in LPS-primed macrophages", "setting": "[1]; LPS 5.5 h, then 2 μM GW-A2 30 min, then 10 μM nigericin, Fig 4D", "value": "no significant effect"},
      {"measurement": "MSU-induced IL-1β secretion in LPS-primed macrophages", "setting": "[1]; LPS 5.5 h, then 2 μM GW-A2 30 min, then 100 μg/ml MSU, Fig 4F", "value": "not able to inhibit"},
      {"measurement": "ATP-induced IL-1β secretion and caspase-1 activation in LPS-primed macrophages", "setting": "[1]; LPS 5.5 h, then 2 μM GW-A2 30 min, then 5 mM ATP, Fig 4C", "value": "inhibited"},
      {"measurement": "TNF-α secretion in LPS-primed macrophages", "setting": "[1]; LPS 5.5 h, then 2 μM GW-A2 30 min, then 5 mM ATP, Fig 4E", "value": "did not decrease"},
      {"measurement": "Viability of THP-1 macrophages", "setting": "THP-1 macrophages", "value": "did not reduce"},
      {"measurement": "Phosphorylation levels of ERK1/2, JNK1/2 and p38", "setting": "[2]; Fig 2A", "value": "reduced"},
      {"measurement": "Phosphorylation levels of PKC-α and PKC-δ", "setting": "[2]; Fig 2B", "value": "reduced"},
      {"measurement": "Phosphorylation levels of IκB-α", "setting": "[2]; Fig 2C", "value": "inhibited"},
      {"measurement": "NO generation, GW-A2 added 0–8 h post LPS stimulation (therapeutic)", "setting": "[3]; 2 μM GW-A2, Fig 3B", "value": "significantly inhibited"},
      {"measurement": "NO generation, GW-A2 added 16 h after LPS stimulation", "setting": "[3]; 2 μM GW-A2, Fig 3B", "value": "no effect"},
      {"measurement": "NO generation induced by E. coli-LPS", "setting": "[3]; RAW 264.7, 30 min peptide then 0.1 μg/ml E. coli LPS 24 h, Griess, Fig 1A", "value": "inhibited by GW-A2 in a dose-dependent manner"},
      {"measurement": "NO generation induced by Salmonella-LPS", "setting": "[3]; RAW 264.7, 30 min peptide then 0.1 μg/ml Salmonella LPS 24 h, Griess, Fig 1A", "value": "inhibited by GW-A2 in a dose-dependent manner"},
      {"measurement": "LPS-induced NO generation, GW-A2 added with LPS or 24 h before LPS (prophylactic)", "setting": "[3]; pre-incubation 0–24 h, then LPS 24 h, Fig 3A", "value": "significantly reduce"},
      {"measurement": "LPS-induced NO generation, GW-A2 washed off before LPS stimulation", "setting": "[3]; pre-incubation 1, 3, 6, 12 or 24 h, supernatant replaced, LPS 24 h, Fig 3C", "value": "not able to inhibit"},
      {"measurement": "IL-6 secretion level", "setting": "[4]", "value": "reduced"},
      {"measurement": "TNF-α secretion level", "setting": "[4]", "value": "reduced"}
    ]}
  ]
}
